Several values for one entry are separate records, joined by “and”; a condition that tells them apart may be missing. Identical values can stand only once.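 Grown in 96-well plates, cells were treated for 48 hours with each compound at five concentrations. Insufficient inhibition: endpoint recorded as highest concentration tested. Abbreviation: GI50, concentration required for 50% inhibition of growth. Definition used: TGI = concentration required for complete inhibition of growth.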

Common to all, as to experiment: NCI anticancer screen, dose series, 48 h
Test [1] deals with COLO 205 colon.
Test [2] relates to HOP-62 NSCLC.
For test [3], the system named is HOP-92 NSCLC.
The test system of test [4] is KM12 colon.
The subject of test [5] is MDA-MB-435.
Test [6] relates to MOLT-4 leukemia.
Test [7] has as its system NCI-H23 lung.
Test [8] concerns OVCAR-4 ovarian.
Test [9] deals with RXF 393 renal.
Test [10] has as its system SF-295 CNS.
Test [11] deals with SF-539 CNS.
The test system of test [12] is T-47D breast.
Test [13] deals with U251 CNS.
For test [14], the system named is UACC-62 melanoma.

For `COC(=O)c1c(O)ccc2c1c1c(n2-c2ccc(OC)cc2)C(=O)c2ccccc2C1=O`, the TGI was 3.52 µM in test [1]; 34.5 µM in test [2]; 36.7 µM in test [3]; 77.8 µM in test [4]; more than 100 µM in test [5]; more than 100 µM in test [6]. The TGI was more than 100 µM in test [7]; 38.2 µM in [8]; 25.7 µM in test [9]; 44.1 µM in test [10]; 29.9 µM in [11]; 66.2 µM in test [12]. For the same molecule, the TGI in test [13] was 28.4 µM.

As for `CN(C)c1ccc(N=Nc2cccc3ncccc23)cc1`, the TGI in test [1] is more than 100 µM; in test [2], more than 100 µM; in test [3] it was more than 100 µM; in test [4], more than 100 µM; in test [5], more than 79.8 µM; in [6] it was more than 100 µM. Moreover, the TGI in test [7], in [8], in test [9], in [10], in test [11] and in test [12] was more than 100 µM throughout. Further, the TGI in [13] and in [14] was more than 100 µM throughout.

As to `OC(C/C(=N\N=C(/CC(O)(C(F)(F)F)C(F)(F)F)c1ccccc1)c1ccccc1)(C(F)(F)F)C(F)(F)F`, the TGI in test [1], in test [2], in [3], in test [4], in [5] and in test [6] was more than 10 µM in each case. Further, the TGI in test [7], in test [8], in test [9], in [10], in test [11] and in test [12] was more than 10 µM each time. The TGI in [13] and in test [14] was more than 10 µM each time.

On to `CC(=O)OCC1OC(n2c(C)c(C(C)=O)c(-c3cccc4ccccc34)c(C#N)c2=S)C(OC(C)=O)C(OC(C)=O)C1OC(C)=O` (configuration not stated), for which the TGI in [1], in [2], in test [3], in [4], in test [5] and in test [6] was more than 100 µM throughout. The TGI in test [7], in test [8], in test [9], in test [10], in [11] and in test [12] was more than 100 µM each time. The TGI in test [13] and in test [14] was more than 100 µM throughout.

On to `Cc1ccc(/C(O)=C/c2nc3ccccc3[nH]c2=O)c(C)c1`, for which the TGI in [1] was more than 100 µM; in test [2] it was 34.3 µM; in test [3], 16.9 µM; in test [4], more than 61.5 µM; in test [5], more than 100 µM; in test [6], more than 100 µM. Also, the TGI was more than 65 µM in [7]; 6.17 µM in test [8]; more than 49.2 µM in [9]; 53 µM in test [10]; 31.6 µM in test [11]; more than 69.7 µM in test [12]. Further, the TGI was found to be 36.7 µM in test [13] and 43.7 µM in test [14].

Take `COc1ccc2c(c1)N=C1CSC(c3c(Cl)cccc3[N+](=O)[O-])N1C2` (configuration not stated): the TGI in [1], in [2], in test [3], in test [4], in test [5] and in [6] was more than 100 µM throughout. Besides, the TGI in test [7], in [8], in test [9], in test [10], in test [11] and in test [12] was more than 100 µM each time. Moreover, the TGI is more than 100 µM in [13] and 48.1 µM in [14].

In the case of `N#C/C(=C\c1ccc(Br)cc1)c1nc(-c2cc3ccccc3oc2=O)cs1`, the TGI was more than 50 µM in [1]; 20.1 µM in test [2]; 36.6 µM in [3]; more than 50 µM in test [4]; more than 50 µM in test [5]; more than 50 µM in test [6]. The TGI is more than 50 µM in [8]; more than 50 µM in test [9]; more than 50 µM in [10]; 40.4 µM in test [11]; more than 50 µM in [12]; 20.1 µM in test [13]. The TGI in [14] was 23.7 µM.

`Clc1ccccc1-c1nnc2c(-c3ccccc3)nc3ccccc3n12`: the TGI in test [1], in test [2], in test [3], in test [4], in test [5] and in test [6] was more than 100 µM each time. Moreover, the TGI in [7] was more than 100 µM; in test [8] it was more than 100 µM; in test [9] it was more than 100 µM; in [11], more than 100 µM; in [12], 69.2 µM; in [13], more than 100 µM. The molecule also registered a TGI in test [14] of more than 100 µM.

On to `CCOC(=O)c1nc2ccccc2nc1Oc1ccc(OC)cc1`, for which the TGI in test [1], in test [2], in [3], in test [4], in test [5] and in test [6] was more than 100 µM each time. The TGI in test [8], in test [9], in test [10], in [11], in test [12] and in test [13] was more than 100 µM throughout. In test [14], this molecule returned a TGI of more than 100 µM.

As to `CN(C)CCNC(=O)c1cc(-c2nccn2C)nc2ccccc12`, the TGI in test [1], in test [2], in test [3], in test [4], in [5] and in test [6] was more than 100 µM throughout. The TGI in [7], in [9], in test [11], in [12], in test [13] and in test [14] was more than 100 µM in each case.

Turning to `[O-]c1c[n+](CC[n+]2cc([O-])on2)no1`, the TGI in test [1], in [2], in test [3], in test [4], in test [5] and in test [6] was more than 100 µM each time. The TGI in test [7], in [8], in [9], in test [10], in [12] and in test [13] was more than 100 µM each time. In test [14], this molecule returned a TGI of more than 100 µM.

As for `CC(C)(C)c1cc(C(=O)/C=C/c2ccc3c(c2)CCO3)cc(C(C)(C)C)c1O`, the TGI in test [1] was 1.58 µM; in test [2], more than 93.7 µM; in [3], more than 100 µM; in test [4], 3.66 µM; in test [5], 0.91 µM; in [6], more than 31.3 µM. For the same molecule, the TGI is more than 24.5 µM in test [7]; 0.579 µM in test [9]; 1.46 µM in test [11]; more than 100 µM in [12]; 3.17 µM in test [13]; 29.6 µM in [14].

With `O=C(CC(C(=O)c1cccs1)c1ccsc1)c1ccco1` (configuration not stated), the TGI in test [1] was 95.5 µM; in test [2], more than 100 µM; in test [3] it was more than 100 µM; in test [4] it was 42.7 µM; in [5] it was 40.6 µM; in test [6], more than 100 µM. Moreover, the TGI in test [7] was 49.7 µM; in test [9] it was 49.7 µM; in test [10] it was more than 100 µM; in test [11], 98.2 µM; in test [12] it was 80.3 µM; in test [13] it was 49.6 µM. In [14], this molecule registered a TGI of 62.1 µM.

As to `O=[N+]([O-])/C=C/COCc1cc2c(cc1Br)OCO2`, the TGI was 43.6 µM in test [1]; 41.9 µM in test [2]; 65.3 µM in test [3]; 33.8 µM in [4]; 27.1 µM in [5]; more than 100 µM in [6]. Besides, the TGI in test [8] was 36.7 µM; in test [9] it was 30.9 µM; in test [10], more than 100 µM; in test [11], 63.6 µM; in test [12], 41.6 µM; in test [13] it was 30.7 µM. The molecule further displayed a TGI in [14] of 30.1 µM.

With `CC(C)c1ccc2[nH]c(O)c(C3=Nc4ccccc4C3=O)c2c1`, the TGI in test [1] was more than 100 µM; in [2], 21 µM; in [3] it was 23.4 µM; in [4], more than 100 µM; in test [5], more than 100 µM; in [6], 61.5 µM. For the same molecule, the TGI in [7] was more than 100 µM; in test [8], 12.8 µM; in test [9] it was 6.71 µM; in test [10], more than 100 µM; in test [12] it was 17.2 µM; in test [13] it was 41.4 µM. This molecule came in with a TGI in test [14] of 69.8 µM.

Turning to `Clc1ccc(-c2nnc(C34CC5CC(CC(C5)C3)C4)o2)cc1`, the TGI in test [1], in [2], in test [3], in test [5], in test [6] and in [7] was more than 100 µM in each case. Further, the TGI in [8], in [9], in [10], in test [11], in test [12] and in test [13] was more than 100 µM throughout. In test [14], this molecule returned a TGI of more than 100 µM.

Take `Cc1c(F)c(N)c2c(=O)cc(-c3ccc(NC(=O)[C@@H](N)CCCCN)c(F)c3)oc2c1F`: the GI50 is 14.9 µM and 6.93 µM in test [1]; 3.3 µM and 1.38 µM in test [6]; 5.61 µM and 15.4 µM in [7]; 17.1 µM and 5.78 µM in test [11]; 2.96 µM and 0.842 µM in [13]. The TGI in [1] is 31.5 µM and 24.4 µM; in test [2], 27.3 µM and 24 µM; in [3], 68.5 µM and 39.8 µM; in [4] it was 24.8 µM and 22.4 µM; in [5] it was 26.6 µM and 20.5 µM; in test [6], 15.1 µM and 5.79 µM. Moreover, the TGI in [7] was 23.3 µM and 37.5 µM; in test [8], 32.7 µM and 26.7 µM; in test [9] it was 36.1 µM and 53.3 µM; in test [10], 28.5 µM and 32.3 µM; in test [11] it was 33.3 µM and 13.6 µM; in test [12], 28.7 µM and > 57.3 µM. Also, in test [13], the TGI is 21.9 µM and 15.1 µM.

`COC(=O)C1(C)CCCC2(C)C3CCC4CC3(C=C4CO)CCC12` (configuration not stated): the TGI in test [1] was more than 100 µM; in [2], more than 100 µM; in [3] it was more than 100 µM; in [5], more than 100 µM; in [6], 76.4 µM; in [7], more than 100 µM. Also, the TGI in [8], in [9], in test [10], in [11], in test [12] and in test [13] was more than 100 µM in each case. This molecule returned a TGI in test [14] of more than 100 µM.

Regarding `CC(C)(C)[Si](C)(C)OCC#C[C@@]1(O)CCCCC1CC(Sc1ccccc1)Sc1ccccc1` (some centres not stated), the TGI in test [1] turned out to be 31.6 µM; in test [2], 31.4 µM; in [3], 37.4 µM; in test [4], 63.8 µM; in [5], 31.4 µM; in test [6], 51 µM. Besides, the TGI in test [7] is 36.1 µM; in [8], 29.2 µM; in test [9], 27.1 µM; in test [10], 28.2 µM; in test [12], 25.5 µM; in [13], 26.1 µM. In [14], the TGI is 26.7 µM.

As to `[C-]#[N+]C1(C(=O)OCC)CC1`, the TGI in [2], in test [3], in [5], in test [6], in test [7] and in [8] was more than 100 µM throughout. Further, the TGI in test [9], in test [10], in [11], in [12], in test [13] and in test [14] was more than 100 µM each time.
